Structures are written as SMILES.

Consider 22 compounds from patent US20240101572A1, “DIHYDROOXADIAZINONE COMPOUND AND PHARMACEUTICAL USE THEREOF” (Japan Tobacco Inc., priority 2022, published 2024).

The target of experiment [1] is full-length human PLD2 (Homo sapiens (Human), UniProt O14939). Description: Evaluation of human PLD2 enzyme inhibitory activity (Amplex Red / choline oxidase fluorescence). It counts as biochemical. As to conditions: full-length human PLD2 enzyme; read-out: PLD2 IC50. How it is done:
A method for measuring human PLD2 enzyme inhibitory activity using an enzyme in which a FLAG-tag is added to the N-terminus of full-length human PLD2 (1-933 amino acids) is shown below.
(§1) DNA fragment in which a FLAG-tag sequence is added to the 5′-end of full-length human PLD2 was amplified by PCR method, using commercially available human PLD2 gene (Promega KK) as a template. The amplified DNA fragment was fused with vector pVL1393 for baculovirus production (Pharmingen) digested with BamHI and EcoRI, using In-Fusion HD Cloning Kit (Takara Bio). The full-length human PLD2-expression plasmid DNA for baculovirus was isolated from Escherichia coli DH5a (TOYOBO) transformed with the obtained In-Fusion reaction product. Next, DNA fragment in which a FLAG-tag sequence is added to the 5′-end of full-length human PLD2 was amplified by PCR method, using the full-length human PLD2-expression plasmid DNA for baculovirus as a template. The amplified DNA fragment was fused with a DNA fragment in which a linker sequence is introduced into pcDNA3.4-TOPO (Life Technologies), using In-Fusion HD Cloning Kit (Takara Bio). The full-length human PLD2-expression plasmid DNA for animal cells was isolated from Escherichia coli DH5a transformed with the obtained In-Fusion reaction product. The base sequence of the full-length human PLD2 cloned into vector was determined by a Dye Terminator method using BigDye Terminator v3.1 Cycle Sequencing Kit (Applied Biosystems). The determined sequence was a sequence in which the FLAG-tag sequence was inserted at the 5′-end of the full-length human PLD2 (GenBank Accession Number: NM 002663).
(§2) Expi293F cells (Life Technologies) were cultured with shaking using Expi293 Expression Medium (Life Technologies) as a medium at 37° C. in the presence of 8% CO2. The gene introduction reagent PEI was prepared by dissolving Polyethylenimine Max (nominally MW 40,000) (Polysciences) in MilliQ water, adjusting the pH of the solution to 7.0 with NaOH to obtain a 1 mg/mL solution, and then filtering the solution through 0.22 μm filter. The full-length human PLD2-expression plasmid DNA for animal cells was transfected into Expi293F cells using PEI, and after 48 hours of shaking culture, the cells were collected and stored at −80° C.
(§3) To the full-length human PLD2-expressed cells was added a Homogenate buffer (20 mmol/L Na-phosphate pH 7.5, 250 mmol/L NaCl, 1 mmol/L MgCl2, 1% β-OG, 0.05 mmol/L DTT+complete EDTA-free (Roche Diagnostics K.K.)), and the cells were lysed by Microfluidizer Processor M-110EH (Mizuho Kogyo Co., Ltd.). The lysate was centrifuged at 10,100×g at 4° C. for 15 minutes, and the supernatant was collected and filtered through 0.45 μm filter. To the centrifuged supernatant was added ANTI-FLAG M2 Affinity Gel (SIGMA-Aldrich) resin equilibrated with a Homogenate buffer, and the mixed solution was stirred at 4° C. for 1 hr or more. The mixed solution was loaded onto Poly-Prep column, and the resin was washed with a Wash buffer (20 mmol/L Na-phosphate pH 7.5, 150 mmol/L NaCl, 1 mmol/L MgCl2, 0.02% Triton, 0.05 mmol/L DTT). A Wash buffer containing 400 μg/mL DYKDDDDK Peptide (Scrum Inc.) was added to the column to elute the protein bound to the resin. The eluted fractions were subjected to SDS-PAGE followed by CBB staining to identify the fractions containing the full-length human PLD2. The eluted fractions of the full-length human PLD2 were collected and concentrated using Amicon Ultra-15 100k (Merck Millipore). The concentrated fractions were collected, flash-frozen in liquid nitrogen and stored at −80° C.
(§4) A DMSO or test substance solution (the DMSO final concentration: 5%) prepared by diluting DMSO or test substance with an Assay buffer (50 mmol/L HEPES pH 7.5, 80 mmol/L KCl, 3 mmol/L EGTA, 3.6 mmol/L MgCl2, 0.01% NP-40, 0.1% BSA), and the solution was added to a 384 well Assay Plate (Black, Polystyrene, Non-Treated, Cat No. 3573, Corning) by 5 μL/well. […]

For experiment [2], the target named is full-length human PLD1 (Homo sapiens (Human), UniProt Q13393). Description: Evaluation of human PLD1 enzyme inhibitory activity (Amplex Red / choline oxidase fluorescence). It counts as biochemical. As to conditions: full-length human PLD1 enzyme; read-out: PLD1 IC50. How it is done: A method for measuring human PLD1 enzyme inhibitory activity using an enzyme in which a FLAG-tag is added to the N-terminus of full-length human PLD1 (1-1036 amino acids) is shown below.
as §1, with “PLD1” for “PLD2”, “PLD1-expression” for “PLD2-expression”, “NM_001130081).” for “NM 002663).”
as §2, with “PLD1-expression” for “PLD2-expression”
as §3, with “PLD1-expressed” for “PLD2-expressed”, “PLD1.” for “PLD2.”, “PLD1” for “PLD2”
as §4

Chain of full-length human PLD1 (Q13393 other isoform, or with tags, fused parts or gaps): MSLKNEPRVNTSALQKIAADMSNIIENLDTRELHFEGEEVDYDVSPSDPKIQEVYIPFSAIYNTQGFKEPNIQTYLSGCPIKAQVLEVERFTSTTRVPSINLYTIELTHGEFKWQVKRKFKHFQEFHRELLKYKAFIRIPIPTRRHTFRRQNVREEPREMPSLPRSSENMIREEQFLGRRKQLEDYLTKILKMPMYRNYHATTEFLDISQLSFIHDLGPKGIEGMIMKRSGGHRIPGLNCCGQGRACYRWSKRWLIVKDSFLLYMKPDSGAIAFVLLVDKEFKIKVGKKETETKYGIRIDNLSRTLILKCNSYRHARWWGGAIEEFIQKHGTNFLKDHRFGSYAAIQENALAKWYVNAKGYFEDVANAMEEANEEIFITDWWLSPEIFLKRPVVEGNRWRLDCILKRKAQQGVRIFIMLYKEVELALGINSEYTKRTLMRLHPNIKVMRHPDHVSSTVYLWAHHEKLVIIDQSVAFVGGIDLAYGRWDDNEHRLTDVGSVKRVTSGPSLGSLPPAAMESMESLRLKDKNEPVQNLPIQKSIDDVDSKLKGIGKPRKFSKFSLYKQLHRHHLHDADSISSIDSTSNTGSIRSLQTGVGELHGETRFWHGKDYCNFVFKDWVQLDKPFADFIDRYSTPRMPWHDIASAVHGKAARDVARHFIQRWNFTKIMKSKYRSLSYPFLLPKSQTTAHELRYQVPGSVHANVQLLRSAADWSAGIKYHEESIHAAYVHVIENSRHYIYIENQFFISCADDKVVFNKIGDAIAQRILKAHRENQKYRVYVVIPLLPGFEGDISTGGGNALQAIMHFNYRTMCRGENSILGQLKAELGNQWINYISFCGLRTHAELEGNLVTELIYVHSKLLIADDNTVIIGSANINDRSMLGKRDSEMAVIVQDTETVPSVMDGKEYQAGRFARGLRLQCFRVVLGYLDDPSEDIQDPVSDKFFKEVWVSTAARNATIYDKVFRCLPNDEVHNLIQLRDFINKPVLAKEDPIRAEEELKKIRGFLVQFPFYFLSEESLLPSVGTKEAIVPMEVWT
Chain of full-length human PLD2 (O14939 whole entry, the tested form may be a part): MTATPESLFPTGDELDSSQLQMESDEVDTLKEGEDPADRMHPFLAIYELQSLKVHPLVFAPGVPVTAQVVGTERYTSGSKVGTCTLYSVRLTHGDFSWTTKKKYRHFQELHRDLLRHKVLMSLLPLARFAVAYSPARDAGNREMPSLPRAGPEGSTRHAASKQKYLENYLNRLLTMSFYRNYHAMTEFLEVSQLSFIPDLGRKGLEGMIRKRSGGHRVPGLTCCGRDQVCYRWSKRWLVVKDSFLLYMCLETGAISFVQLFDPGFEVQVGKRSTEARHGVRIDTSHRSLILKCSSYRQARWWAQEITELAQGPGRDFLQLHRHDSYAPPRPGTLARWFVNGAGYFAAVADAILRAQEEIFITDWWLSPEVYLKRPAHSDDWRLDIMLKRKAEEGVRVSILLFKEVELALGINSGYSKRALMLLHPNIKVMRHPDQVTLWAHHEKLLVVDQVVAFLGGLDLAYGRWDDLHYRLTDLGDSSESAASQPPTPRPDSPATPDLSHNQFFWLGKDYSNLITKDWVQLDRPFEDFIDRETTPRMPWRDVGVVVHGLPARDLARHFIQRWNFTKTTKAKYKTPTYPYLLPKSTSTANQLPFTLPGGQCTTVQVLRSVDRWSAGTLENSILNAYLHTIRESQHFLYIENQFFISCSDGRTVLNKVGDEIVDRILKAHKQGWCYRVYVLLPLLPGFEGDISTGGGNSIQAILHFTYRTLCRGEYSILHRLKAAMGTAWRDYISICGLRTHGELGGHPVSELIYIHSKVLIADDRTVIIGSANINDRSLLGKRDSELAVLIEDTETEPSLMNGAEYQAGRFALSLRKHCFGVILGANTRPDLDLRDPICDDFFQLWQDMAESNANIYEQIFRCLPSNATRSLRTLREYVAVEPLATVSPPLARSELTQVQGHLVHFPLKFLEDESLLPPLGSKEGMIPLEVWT

Usually IC50 stands for the point on the concentration scale where inhibition reaches its midpoint. For `Cc1cc(C(=O)N[C@@H](C)C[C@H]2CC[C@]3(CC2)OC(=O)NN=C3c2cnc(N3CCC(F)(F)C3)cc2Cl)[nH]n1` [Example 224], the IC50 was less than 10 nM in experiment [1] and 13 nM in experiment [2].
Taken in the same sequence, the figures for `CNC(=O)C(=O)N[C@@H](C)C[C@H]1CC[C@]2(CC1)OC(=O)NN=C2c1cn(CC(F)F)nc1I` [Example 2-058] were 66 nM and 26 nM.
For `C[C@@H](C[C@H]1CC[C@]2(CC1)OC(=O)NN=C2c1ccccc1S(C)(=O)=O)NC(=O)c1cc(Cl)no1` [Example 78] the same measures were 252 nM and 350 nM.
Taken in the same sequence, the figures for `CNC(=O)C(=O)N[C@@H](C)C[C@H]1CC[C@]2(CC1)OC(=O)NN=C2c1ccnn1C` [Example 68] were 4660 nM and 2030 nM.
Take `C[C@@H](CN1CCC2(CC1)OC(=O)NN=C2c1cc(C#N)ccc1Br)NC(=O)/C=C/C(=O)ON1C(=O)CCC1=O` [Example 2-042]: the IC50 was found to be 383 nM in experiment [1] and 3020 nM in experiment [2].
For `[2H]C([2H])([2H])NC(=O)C(=O)N[C@@H](C)C[C@H]1CC[C@]2(CC1)OC(=O)NN=C2c1cc(C#N)ccc1Br` [Example 2-073], the IC50 in experiment [1] was 2 nM; in experiment [2], 14 nM.
Taken in the same sequence, the figures for `Cc1cc(C(=O)N[C@@H](C)C[C@H]2CC[C@]3(CC2)OC(=O)NN=C3c2ccc(F)cc2)[nH]n1` [Example 5] were 171 nM and 164 nM.
Taken in the same sequence, the figures for `C[C@@H](C[C@H]1CC[C@]2(CC1)OC(=O)NN=C2c1ccc(F)cc1Br)NC(=O)C1(O)CC1` [Example 36] were 137 nM and 221 nM.
For `C[C@@H](C[C@H]1CC[C@]2(CC1)OC(=O)NN=C2c1cc(OCC(F)(F)F)ccc1Br)NC(=O)c1cnn(C)c1` [Example 305] the same measures were less than 10 nM and 15 nM.
Turning to `Cc1cc(C(=O)N[C@@H](C)C[C@H]2CC[C@]3(CC2)OC(=O)NN=C3c2cnc(C3CC3)cc2Cl)[nH]n1` [Example 266], the values for the IC50 in experiment [1] and in experiment [2] were less than 10 nM and 15 nM, respectively.
In the case of `Cc1cc(C(=O)N[C@@H](C)C[C@H]2CC[C@]3(CC2)OC(=O)NN=C3c2cnc(N3CC4CCC(C3)O4)cc2Cl)[nH]n1` [Example 247], the IC50 was less than 10 nM in experiment [1] and 14 nM in experiment [2].
For `CNC(=O)C(=O)N[C@@H](C)C[C@H]1CC[C@]2(CC1)OC(=O)NN=C2c1cnc(OCC(F)(F)F)cc1C` [Example 170] the same measures were less than 10 nM and 19 nM.
Taken in the same sequence, the figures for `C[C@@H](CN1CCC2(CC1)OC(=O)NN=C2c1ccc(F)cc1Cl)NC(=O)c1cc2cc(F)ccc2o1` [Example 91] were 15 nM and 23 nM.
Taken in the same sequence, the figures for `CNC(=O)C(=O)N[C@@H](C)C[C@H]1CC[C@]2(CC1)OC(=O)NN=C2c1ccc(C)cc1C` [Example 145] were less than 10 nM and 17 nM.
`C[C@@H](C[C@H]1CC[C@]2(CC1)OC(=O)NN=C2c1cc(OC(F)(F)F)ccc1Br)NC(=O)c1cnn(C)c1` [Example 303]: the results for the IC50 in experiment [1] and in experiment [2] were less than 10 nM and 11 nM, respectively.
Taken in the same sequence, the figures for `Cc1cc(N2CCOCC2)ccc1C1=NNC(=O)O[C@]12CC[C@@H](C[C@H](C)NC(=O)C(=O)NC1CC1)CC2` [Example 218] were 13 nM and 23 nM.
Consider `CNC(=O)C(=O)N[C@@H](C)CN1CCC2(CO1)OC(=O)NN=C2c1cc(C#N)ccc1Br` (some centres unmarked) [Example 2-025], for which the IC50 in experiment [1] was determined as 205 nM; in experiment [2], 219 nM.
On to `CNC(=O)C(=O)N[C@@H](C)C[C@H]1CC[C@]2(CC1)OC(=O)NN=C2c1ccc(C(C)(C)O)cc1Br` [Example 96], for which the figures for the IC50 in experiment [1] and in experiment [2] were less than 10 nM and 18 nM, respectively.
Taken in the same sequence, the figures for `CNC(=O)C(=O)N[C@@H](C)C[C@H]1CC[C@]2(CC1)OC(=O)NN=C2c1cc(C(F)(F)F)ncc1Br` [Example 2-075] were less than 10 nM and 16 nM.
Taken in the same sequence, the figures for `CNC(=O)C(=O)N[C@@H](C)CN1CC2CC1CC21OC(=O)NN=C1c1ccc(F)cc1Br` (mixture of isomers) [Example 2-005] were 35 nM and 433 nM.
Taken in the same sequence, the figures for `C[C@@H](CN1CCC2(CC1)OC(=O)NN=C2c1cc(C#N)ccc1Br)NC(=O)/C=C/C(F)(F)F` [Example 2-003] were 12 nM and 38 nM.
Consider `C[C@@H](C[C@H]1CC[C@]2(CC1)OC(=O)NN=C2c1cc(C#N)ccc1Br)NC(=O)c1ncon1` [Example 293], for which the IC50 in experiment [1] amounted to 325 nM; in experiment [2], 127 nM.
